Test results published in ChEMBL document CHEMBL1201862, “PubChem BioAssay data set” (2004).
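Briefly, cells in 96-well plates were exposed to five compound concentrations for 48 h, and endpoints were estimated by linear interpolation. GI50: concentration for 50% inhibition of growth.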 Activity calls are given as the source filed them. Rule as the data show it: active = GI50 up to about 1.1 µM and inactive = higher.

Legend:
Experiment in all cases: DTP human tumour cell line panel, 48 h
ACHN = system: ACHN
NCI-H522 = system: NCI-H522
EKVX = system: EKVX
HCC 2998 = system: HCC 2998
NCI-H226 = system: NCI-H226
LOX IMVI = system: LOX IMVI
SK-OV-3 = system: SK-OV-3
SNB-78 = system: SNB-78
K562 = system: K562
HCT-15 = system: HCT-15
KM12 = system: KM12
SW-620 = system: SW-620
IGROV-1 = system: IGROV-1
CCRF-CEM = system: CCRF-CEM
SK-MEL-28 = system: SK-MEL-28
SNB-19 = system: SNB-19
SK-MEL-5 = system: SK-MEL-5
RXF 631 = system: RXF 631
HOP-62 = system: HOP-62
SF-295 = system: SF-295
XF498 = system: XF498
HCT-116 = system: HCT-116
DLD-1 = system: DLD-1
HOP-92 = system: HOP-92
A549 = system: A549
COLO 205 = system: COLO 205
UACC-257 = system: UACC-257
TK-10 = system: TK-10
CAKI-1 = system: CAKI-1
M14 = system: M14
SK-MEL-2 = system: SK-MEL-2
UO-31 = system: UO-31
NCI-H460 = system: NCI-H460
U-251 = system: U-251
KM-20L2 = system: KM-20L2
SNB-75 = system: SNB-75
MOLT-4 = system: MOLT-4
M19-MEL = system: M19-MEL
SR = system: SR
DMS-273 = system: DMS-273
OVCAR-5 = system: OVCAR-5
DMS-114 = system: DMS-114
HT-29 = system: HT-29
A498 = system: A498
RPMI-8226 = system: RPMI-8226
NCI-H23 = system: NCI-H23
HL-60 = system: HL-60
SF-539 = system: SF-539
SN12C = system: SN12C
UACC-62 = system: UACC-62
RXF 393 = system: RXF 393
OVCAR-4 = system: OVCAR-4
LXFL 529 = system: LXFL 529
OVCAR-8 = system: OVCAR-8
SF-268 = system: SF-268

O=C(c1ccccc1)c1ccc2c(c1)N=C(c1ccc(Cl)c(Cl)c1)CC(c1ccc3ccccc3c1)N2 (stereo not given)
GI50 (ACHN): > 100 µM (inactive) | GI50 (NCI-H522): > 100 µM (inactive) | GI50 (EKVX): > 100 µM (inactive) | GI50 (HCC 2998): > 100 µM (inactive) | GI50 (NCI-H226): > 100 µM (inactive) | GI50 (LOX IMVI): > 100 µM (inactive) | GI50 (SK-OV-3): > 100 µM (inactive) | GI50 (SNB-78): > 100 µM (inactive) | GI50 (K562): > 100 µM (inactive) | GI50 (HCT-15): > 100 µM | GI50 (KM12): > 100 µM (inactive) | GI50 (SW-620): > 100 µM (inactive) | GI50 (IGROV-1): > 100 µM (inactive) | GI50 (CCRF-CEM): 67.6 µM (inactive) | GI50 (SK-MEL-28): > 100 µM (inactive) | GI50 (SNB-19): > 100 µM (inactive) | GI50 (SK-MEL-5): > 100 µM (inactive) | GI50 (RXF 631): > 100 µM (inactive) | GI50 (HOP-62): > 100 µM (inactive) | GI50 (SF-295): > 100 µM (inactive) | GI50 (XF498): > 100 µM (inactive) | GI50 (HCT-116): > 100 µM (inactive) | GI50 (DLD-1): > 100 µM (inactive) | GI50 (HOP-92): > 100 µM (inactive) | GI50 (A549): > 100 µM (inactive) | GI50 (COLO 205): > 100 µM (inactive) | GI50 (UACC-257): > 100 µM (inactive) | GI50 (TK-10): > 100 µM (inactive) | GI50 (CAKI-1): > 100 µM (inactive) | GI50 (M14): > 100 µM (inactive) | GI50 (SK-MEL-2): > 100 µM (inactive) | GI50 (UO-31): > 100 µM (inactive) | GI50 (NCI-H460): > 100 µM (inactive) | GI50 (U-251): > 100 µM (inactive) | GI50 (KM-20L2): > 100 µM (inactive) | GI50 (SNB-75): > 100 µM (inactive) | GI50 (MOLT-4): > 100 µM (inactive) | GI50 (M19-MEL): > 100 µM (inactive) | GI50 (SR): > 100 µM (inactive) | GI50 (DMS-273): > 100 µM (inactive) | GI50 (OVCAR-5): > 100 µM (inactive) | GI50 (DMS-114): > 100 µM (inactive) | GI50 (HT-29): > 100 µM (inactive) | GI50 (A498): > 100 µM (inactive) | GI50 (RPMI-8226): 99.8 µM (inactive) | GI50 (NCI-H23): > 100 µM (inactive) | GI50 (HL-60): 69 µM (inactive) | GI50 (SF-539): > 100 µM (inactive) | GI50 (SN12C): > 100 µM (inactive) | GI50 (UACC-62): > 100 µM (inactive) | GI50 (RXF 393): > 100 µM (inactive) | GI50 (OVCAR-4): > 100 µM (inactive) | GI50 (LXFL 529): > 100 µM (inactive) | GI50 (OVCAR-8): > 100 µM (inactive) | GI50 (SF-268): > 100 µM (inactive)
